Assay results as given in PubChem BioAssay (NCI).
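Grown in 96-well plates, cells were treated for 48 hours with each compound at five concentrations. Insufficient inhibition: endpoint recorded as highest concentration tested. GI50: concentration for 50% inhibition of growth. TGI marks complete inhibition of growth.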

Columns and labels:
Test in all cases: inhibition of tumour cell growth, NCI panel, 48 h
[1] = tested on: 786-0 renal
[2] = tested on: A498 renal
[3] = tested on: A549 NSCLC
[4] = tested on: ACHN renal
[5] = tested on: BT-549 breast
[6] = tested on: CAKI-1 renal
[7] = tested on: CCRF-CEM leukemia
[8] = tested on: COLO 205 colon
[9] = tested on: DU-145 prostate
[10] = tested on: EKVX NSCLC
[11] = tested on: HCC-2998 colon
[12] = tested on: HCT-116 colon
[13] = tested on: HCT-15 colon
[14] = tested on: HL-60(TB) leukemia
[15] = tested on: HOP-62 NSCLC
[16] = tested on: HOP-92 NSCLC
[17] = tested on: HS 578T breast
[18] = tested on: HT29 colon
[19] = tested on: IGROV1 ovarian
[20] = tested on: K-562 leukemia
[21] = tested on: KM12 colon
[22] = tested on: LOX IMVI melanoma
[23] = tested on: M14 melanoma
[24] = tested on: MALME-3M melanoma
[25] = tested on: MCF7 breast
[26] = tested on: MDA-MB-231 breast
[27] = tested on: MDA-MB-435
[28] = tested on: MOLT-4 leukemia
[29] = tested on: NCI-H226 lung
[30] = tested on: NCI-H23 lung
[31] = tested on: NCI-H460 lung
[32] = tested on: NCI-H522 lung
[33] = tested on: NCI/ADR-RES ovarian
[34] = tested on: OVCAR-3 ovarian
[35] = tested on: OVCAR-4 ovarian
[36] = tested on: OVCAR-5 ovarian
[37] = tested on: OVCAR-8 ovarian
[38] = tested on: PC-3 prostate
[39] = tested on: RPMI-8226 leukemia
[40] = tested on: RXF 393 renal
[41] = tested on: SF-268 CNS
[42] = tested on: SF-295 CNS
[43] = tested on: SF-539 CNS
[44] = tested on: SK-MEL-2 melanoma
[45] = tested on: SK-MEL-28 melanoma
[46] = tested on: SK-MEL-5 melanoma
[47] = tested on: SK-OV-3 ovarian
[48] = tested on: SN12C renal
[49] = tested on: SNB-19 CNS
[50] = tested on: SNB-75 CNS
[51] = tested on: SR leukemia
[52] = tested on: SW-620 colon
[53] = tested on: T-47D breast
[54] = tested on: TK-10 renal
[55] = tested on: U251 CNS
[56] = tested on: UACC-257 melanoma
[57] = tested on: UACC-62 melanoma
[58] = tested on: UO-31 renal

With CCN=c1sc2c(n1NC(=O)c1cc3ccc1CCc1ccc(cc1)CC3)C(=O)c1ccccc1C2=O the GI50 [1] was 727 nM, the TGI [1] was 1620 nM and the GI50 [2] was 4810 nM. It also gave a TGI [2] of 20900 nM, a GI50 [3] of 738 nM and a TGI [3] of 1710 nM. For the same compound, the GI50 [4] was 492 nM, the TGI [4] was 965 nM and the GI50 [5] was 511 nM. The TGI [5] was 974 nM, the GI50 [6] was 496 nM and the TGI [6] was 2860 nM. For the same compound, the GI50 [7] was 1010 nM, the TGI [7] was 33300 nM and the GI50 [8] was 1560 nM. It also gave a TGI [8] of 3710 nM, a GI50 [9] of 632 nM and a TGI [9] of 1160 nM. It also gave a GI50 [10] of 632 nM, a TGI [10] of 1660 nM and a GI50 [11] of 824 nM. The TGI [11] was 2100 nM, the GI50 [12] was 754 nM and the TGI [12] was 2070 nM. It also gave a GI50 [13] of 569 nM, a TGI [13] of 1210 nM and a GI50 [14] of 815 nM. The TGI [14] was 2300 nM, the GI50 [15] was 1020 nM and the TGI [15] was 2760 nM. For the same compound, the GI50 [16] was 772 nM, the TGI [16] was 2830 nM and the GI50 [17] was 784 nM. For the same compound, the TGI [17] was 2280 nM, the GI50 [18] was 1400 nM and the TGI [18] was 19200 nM. For the same compound, the GI50 [19] was 449 nM, the TGI [19] was 1310 nM and the GI50 [20] was 920 nM. For the same compound, the TGI [20] was 13000 nM, the GI50 [21] was 1020 nM and the TGI [21] was 3830 nM. For the same compound, the GI50 [22] was 478 nM, the TGI [22] was 1240 nM and the GI50 [23] was 577 nM. The TGI [23] was 1110 nM, the GI50 [24] was 524 nM and the TGI [24] was 978 nM. It also gave a GI50 [25] of 592 nM, a TGI [25] of 1300 nM and a GI50 [26] of 658 nM. It also gave a TGI [26] of 2720 nM, a GI50 [27] of 601 nM and a TGI [27] of 1090 nM. For the same compound, the GI50 [28] was 634 nM, the TGI [28] was 1940 nM and the GI50 [29] was 2210 nM. The TGI [29] was 7330 nM, the GI50 [30] was 589 nM and the TGI [30] was 1640 nM. For the same compound, the GI50 [31] was 1310 nM, the TGI [31] was 4860 nM and the GI50 [32] was 540 nM. It also gave a TGI [32] of 1310 nM, a GI50 [33] of 814 nM and a TGI [33] of 2390 nM. For the same compound, the GI50 [34] was 567 nM, the TGI [34] was 1520 nM and the GI50 [35] was 469 nM. For the same compound, the TGI [35] was 906 nM, the GI50 [36] was 587 nM and the TGI [36] was 1150 nM. For the same compound, the GI50 [37] was 594 nM, the TGI [37] was 1350 nM and the GI50 [38] was 643 nM. It also gave a TGI [38] of 3050 nM, a GI50 [39] of 769 nM and a TGI [39] of 2200 nM. It also gave a GI50 [40] of 504 nM, a TGI [40] of 976 nM and a GI50 [41] of 604 nM. For the same compound, the TGI [41] was 1620 nM, the GI50 [42] was 951 nM and the TGI [42] was 2640 nM. For the same compound, the GI50 [43] was 556 nM, the TGI [43] was 1040 nM and the GI50 [44] was 726 nM. For the same compound, the TGI [44] was 1560 nM, the GI50 [45] was 663 nM and the TGI [45] was 1180 nM. The GI50 [46] was 563 nM, the TGI [46] was 1030 nM and the GI50 [47] was 4490 nM. It also gave a TGI [47] of 8950 nM, a GI50 [48] of 520 nM and a TGI [48] of 1060 nM. It also gave a GI50 [49] of 605 nM, a TGI [49] of 1330 nM and a GI50 [50] of 231 nM. It also gave a TGI [50] of 787 nM, a GI50 [51] of 815 nM and a TGI [51] of 9910 nM. For the same compound, the GI50 [52] was 593 nM, the TGI [52] was 1290 nM and the GI50 [53] was 706 nM. The TGI [53] was 2340 nM, the GI50 [54] was 9540 nM and the TGI [54] was 16500 nM. It also gave a GI50 [55] of 498 nM, a TGI [55] of 1040 nM and a GI50 [56] of 551 nM. For the same compound, the TGI [56] was 1070 nM, the GI50 [57] was 593 nM and the TGI [57] was 1200 nM. For the same compound, the GI50 [58] was 356 nM and the TGI [58] was 960 nM.

Work on CC(=O)ON1CCCC(P(=O)(OCOC(=O)C(C)(C)C)OCOC(=O)C(C)(C)C)C1=O (stereo unspecified) yielded a GI50 [1] of 331 nM, a TGI [1] of over 23400 nM and a GI50 [2] of 314 nM. For the same compound, the TGI [2] was 2010 nM, the GI50 [3] was 514 nM and the TGI [3] was 18700 nM. The GI50 [4] was 596 nM, the TGI [4] was 13500 nM and the GI50 [5] was 559 nM. The TGI [5] was 5100 nM, the GI50 [6] was 712 nM and the TGI [6] was 20400 nM. The GI50 [7] was 125 nM, the TGI [7] was 7810 nM and the GI50 [8] was 925 nM. The TGI [8] was 5710 nM, the GI50 [9] was 1470 nM and the TGI [9] was 17400 nM. For the same compound, the GI50 [10] was 940 nM, the TGI [10] was 11100 nM and the GI50 [11] was 803 nM. For the same compound, the TGI [11] was 3500 nM, the GI50 [12] was 249 nM and the TGI [12] was 4880 nM. It also gave a GI50 [13] of 534 nM, a TGI [13] of 6710 nM and a GI50 [14] of 653 nM. It also gave a TGI [14] of 2870 nM, a GI50 [15] of 923 nM and a TGI [15] of 7530 nM. For the same compound, the GI50 [16] was 187 nM, the TGI [16] was 1820 nM and the GI50 [17] was 603 nM. It also gave a TGI [17] of 4400 nM, a GI50 [18] of 305 nM and a TGI [18] of 3680 nM. For the same compound, the GI50 [19] was 374 nM, the TGI [19] was 1840 nM and the GI50 [20] was 303 nM. The TGI [20] was over 87200 nM, the GI50 [21] was 510 nM and the TGI [21] was 2540 nM. For the same compound, the GI50 [22] was 827 nM, the TGI [22] was 15300 nM and the GI50 [23] was 1040 nM. The TGI [23] was 6960 nM, the GI50 [24] was 453 nM and the TGI [24] was 6630 nM. The GI50 [25] was 400 nM, the TGI [25] was 2000 nM and the GI50 [26] was 446 nM. It also gave a TGI [26] of 5040 nM, a GI50 [27] of 2020 nM and a TGI [27] of 15000 nM. It also gave a GI50 [28] of 511 nM, a TGI [28] of 3650 nM and a GI50 [29] of 949 nM. It also gave a TGI [29] of 7200 nM, a GI50 [30] of 910 nM and a TGI [30] of 4250 nM. The GI50 [31] was 959 nM, the TGI [31] was 4710 nM and the GI50 [32] was 506 nM. The TGI [32] was 5630 nM, the GI50 [33] was 531 nM and the TGI [33] was 4210 nM. The GI50 [34] was 775 nM, the TGI [34] was 4490 nM and the GI50 [35] was 1190 nM. It also gave a TGI [35] of 13500 nM, a GI50 [36] of 1940 nM and a TGI [36] of 20300 nM. For the same compound, the GI50 [37] was 324 nM, the GI50 [38] was 1230 nM and the TGI [38] was 17400 nM. The GI50 [39] was 407 nM, the TGI [39] was 1890 nM and the GI50 [40] was 308 nM. For the same compound, the TGI [40] was 1190 nM, the GI50 [41] was 746 nM and the TGI [41] was 6250 nM. It also gave a GI50 [42] of 2370 nM, a TGI [42] of 29000 nM and a GI50 [43] of 1110 nM. The TGI [43] was 5800 nM, the GI50 [44] was 1580 nM and the TGI [44] was 6910 nM. The GI50 [45] was 483 nM, the TGI [45] was 1420 nM and the GI50 [46] was 773 nM. The TGI [46] was 3040 nM, the GI50 [47] was 923 nM and the TGI [47] was 13300 nM. The GI50 [48] was 314 nM, the TGI [48] was 2380 nM and the GI50 [49] was 583 nM. For the same compound, the TGI [49] was 4740 nM, the GI50 [50] was 3310 nM and the TGI [50] was 18600 nM. The GI50 [51] was 309 nM, the TGI [51] was 2340 nM and the GI50 [52] was 1260 nM. For the same compound, the TGI [52] was 20800 nM, the GI50 [53] was 435 nM and the TGI [53] was 7500 nM. The GI50 [54] was 977 nM, the TGI [54] was 6890 nM and the GI50 [55] was 458 nM. For the same compound, the TGI [55] was 5580 nM, the GI50 [56] was 2410 nM and the TGI [56] was 19500 nM. The GI50 [57] was 405 nM, the TGI [57] was 1740 nM and the GI50 [58] was 337 nM. For the same compound, the TGI [58] was 2680 nM.
